Assay results reported in the supplement of paper PMC10307832.

Key:
Experiment in all cases: relative viability (nuclei count vs DMSO), 5 days (fraction); higher = more cells survive
Linsitinib + Pemetrexed = compound: C[C@]1(O)C[C@@H](c2nc(-c3ccc4ccc(-c5ccccc5)nc4c3)c3c(N)nccn32)C1 [Linsitinib] + Nc1nc2[nH]cc(CCc3ccc(C(=O)N[C@@H](CCC(=O)O)C(=O)O)cc3)c2c(=O)[nH]1 [Pemetrexed] (partner 0.2 µM)
In short: (§1)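 The day after seeding in 1536-well plates, lung cancer cell lines were treated by pin tool with a single drug, or with a fixed anchor-drug dose together with five library-drug doses (not always all listed) in √10 steps. After 5 days, a combined fix-and-stain solution (final 0.05% Triton X-100, 1% formaldehyde, 1 ug/ml Hoechst) was added. Nuclei counted on 4× images gave relative viability as treated counts over vehicle counts, reported as the median of duplicate plates.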

Ispinesib + Palbociclib = compound: Cc1ccc(C(=O)N(CCCN)[C@@H](c2nc3cc(Cl)ccc3c(=O)n2Cc2ccccc2)C(C)C)cc1 [Ispinesib] + CC(=O)c1c(C)c2cnc(Nc3ccc(N4CCNCC4)cn3)nc2n(C2CCCC2)c1=O [Palbociclib] (partner 0.5 µM)
In short: as §1

Ispinesib + Crizotinib = compound: Cc1ccc(C(=O)N(CCCN)[C@@H](c2nc3cc(Cl)ccc3c(=O)n2Cc2ccccc2)C(C)C)cc1 [Ispinesib] + C[C@@H](Oc1cc(-c2cnn(C3CCNCC3)c2)cnc1N)c1c(Cl)ccc(F)c1Cl [Crizotinib] (partner 1 µM)
In short: as §1

Ispinesib + Dasatinib = compound: Cc1ccc(C(=O)N(CCCN)[C@@H](c2nc3cc(Cl)ccc3c(=O)n2Cc2ccccc2)C(C)C)cc1 [Ispinesib] + Cc1nc(Nc2ncc(C(=O)Nc3c(C)cccc3Cl)s2)cc(N2CCN(CCO)CC2)n1 [Dasatinib] (partner 0.075 µM)
In short: as §1

UMC-11
relative viability (Linsitinib + Pemetrexed; first compound 0.01 µM): 0.7 | relative viability (Linsitinib + Pemetrexed; first compound 0.03162 µM): 0.771 | relative viability (Linsitinib + Pemetrexed; first compound 0.1 µM): 0.817 | relative viability (Linsitinib + Pemetrexed; first compound 0.3162 µM): 0.597 | relative viability (Linsitinib + Pemetrexed; first compound 1 µM): 0.776 | relative viability (Ispinesib + Palbociclib; first compound 0.001 µM): 0.336 | relative viability (Ispinesib + Palbociclib; first compound 0.003162 µM): 0.311 | relative viability (Ispinesib + Palbociclib; first compound 0.01 µM): 0.309 | relative viability (Ispinesib + Palbociclib; first compound 0.03162 µM): 0.217 | relative viability (Ispinesib + Palbociclib; first compound 0.1 µM): 0.237 | relative viability (Ispinesib + Crizotinib; first compound 0.001 µM): 0.547 | relative viability (Ispinesib + Crizotinib; first compound 0.003162 µM): 0.636 | relative viability (Ispinesib + Crizotinib; first compound 0.01 µM): 0.394 | relative viability (Ispinesib + Crizotinib; first compound 0.03162 µM): 0.192 | relative viability (Ispinesib + Crizotinib; first compound 0.1 µM): 0.376 | relative viability (Ispinesib + Dasatinib; first compound 0.001 µM): 0.542 | relative viability (Ispinesib + Dasatinib; first compound 0.003162 µM): 0.544 | relative viability (Ispinesib + Dasatinib; first compound 0.01 µM): 0.317 | relative viability (Ispinesib + Dasatinib; first compound 0.03162 µM): 0.185 | relative viability (Ispinesib + Dasatinib; first compound 0.1 µM): 0.233
